# Measurements published in publication PMC8434392, “Harnessing the Anti-Nociceptive Potential of NK2 and NK3 Ligands in the Design of New Multifunctional μ/δ-Opioid Agonist–Neurokinin Antagonist Peptidomimetics” (Molecules, 2021).
# Numbered stars: 1 amine (or outer) side, 2 acyl side, 3 side chain; on linkers, the order of the positions; unused ones are H or OH. Square brackets hold non-standard residues; d marks the D form. Peptide text beside a SMILES is read from it. * marks the point of attachment. X3 = O=C(c1c(OCCN[*:1])c(-c2ccccc2)nc2ccccc12)[*:2]; NH(1S-phenylpropyl) = CC[C@H](N*)c1ccccc1; Dmt = Cc1cc(O)cc(C)c1C[C@H](N)C(=O)O; 4Amb = NCc1ccc(C(=O)O)cc1; Ac5c = NC1(C(=O)O)CCCC1; X2 = C(CN*)CN1CCOCC1
# How the values were obtained:
# human recombinant KOR [1] = biological target: T1, human recombinant KOR (Homo sapiens, UniProt P41145); assay: Calcium mobilization assay, CHO KOR cells with Gαqi5; assay type: cell-based; settings: for KOR EC50 ± SEM (nM): calcium mobilization, CHO KOR Gαqi5, maximum tested concentration 10 µM, crc = concentration-response curve; for KOR α ± SEM: intrinsic activity: Emax of ligand / Emax of dynorphin A
# T1 construct: expressed in transfected cells; host or cells: CHO cells (gift from Prof. Girolamo Calo', Ferrara University)
# human recombinant MOR [2] = biological target: T2, human recombinant MOR (Homo sapiens, UniProt P35372); assay: Opioid receptor radioligand binding assay, MOR; settings: for Ki [nM] ± SEM MOR: [3H]DAMGO displacement, CHO cell membranes, human recombinant receptor
# T2 construct: expressed in transfected cells; host or cells: CHO cells (gift from Prof. Girolamo Calo', Ferrara University)
# human recombinant KOR [3] = biological target: T1, human recombinant KOR; assay: Opioid receptor radioligand binding assay, KOR
# human recombinant DOR [4] = biological target: T3, human recombinant DOR (Homo sapiens, UniProt P41143); assay: Opioid receptor radioligand binding assay, DOR; settings: for Ki [nM] ± SEM DOR: [3H][Ile5,6]deltorphin-2 displacement, CHO cell membranes, human recombinant receptor
# T3 construct: expressed in transfected cells; host or cells: CHO cells (gift from Prof. Girolamo Calo', Ferrara University)
# human recombinant MOR [5] = biological target: T2, human recombinant MOR; assay: Calcium mobilization assay, CHO MOR cells with Gαqi5; assay type: cell-based; settings: for EC50: calcium mobilization, CHO MOR Gαqi5, maximum tested concentration 10 µM, read-out: MOR EC50 ± SEM; for MOR α ± SEM: intrinsic activity: Emax of ligand / Emax of dermorphin
# human recombinant DOR [6] = biological target: T3, human recombinant DOR; assay: Calcium mobilization assay, CHO DOR cells with GαqG66Di5; assay type: cell-based; settings: for DOR α ± SEM: intrinsic activity: Emax of ligand / Emax of DPDPE
# NK2 (h) = biological target: T4, NK2 (h) (Homo sapiens, UniProt P21452); assay: NK2 radioligand binding assay (Eurofins)
# T4 construct: host or cells: CHO cells
# T4 sequence (P21452 1-398): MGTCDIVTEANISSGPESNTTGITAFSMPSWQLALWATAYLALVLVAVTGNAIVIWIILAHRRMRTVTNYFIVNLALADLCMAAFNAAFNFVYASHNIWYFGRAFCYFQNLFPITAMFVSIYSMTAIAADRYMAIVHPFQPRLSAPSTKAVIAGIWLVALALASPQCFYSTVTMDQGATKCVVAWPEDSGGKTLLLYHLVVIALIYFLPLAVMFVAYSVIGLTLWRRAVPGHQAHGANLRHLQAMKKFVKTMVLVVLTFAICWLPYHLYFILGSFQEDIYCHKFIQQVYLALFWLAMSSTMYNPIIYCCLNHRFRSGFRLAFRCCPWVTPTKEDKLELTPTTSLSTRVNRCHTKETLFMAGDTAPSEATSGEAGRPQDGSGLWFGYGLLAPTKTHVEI
# [7] = calcium mobilization, CHO DOR GαqG66Di5, maximum tested concentration 10 µM
# T1 sequence (P41145 whole entry): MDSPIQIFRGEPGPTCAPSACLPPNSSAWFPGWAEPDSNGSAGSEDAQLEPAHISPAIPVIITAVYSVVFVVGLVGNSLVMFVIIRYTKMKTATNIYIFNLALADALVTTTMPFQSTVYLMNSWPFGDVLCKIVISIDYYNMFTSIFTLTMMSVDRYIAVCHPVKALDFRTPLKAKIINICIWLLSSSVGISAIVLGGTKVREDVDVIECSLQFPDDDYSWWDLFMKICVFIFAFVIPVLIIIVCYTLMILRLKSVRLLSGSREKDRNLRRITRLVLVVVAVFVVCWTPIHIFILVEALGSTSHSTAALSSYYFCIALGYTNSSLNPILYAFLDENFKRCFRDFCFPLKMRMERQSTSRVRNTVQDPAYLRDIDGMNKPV
# T2 sequence (P35372 whole entry): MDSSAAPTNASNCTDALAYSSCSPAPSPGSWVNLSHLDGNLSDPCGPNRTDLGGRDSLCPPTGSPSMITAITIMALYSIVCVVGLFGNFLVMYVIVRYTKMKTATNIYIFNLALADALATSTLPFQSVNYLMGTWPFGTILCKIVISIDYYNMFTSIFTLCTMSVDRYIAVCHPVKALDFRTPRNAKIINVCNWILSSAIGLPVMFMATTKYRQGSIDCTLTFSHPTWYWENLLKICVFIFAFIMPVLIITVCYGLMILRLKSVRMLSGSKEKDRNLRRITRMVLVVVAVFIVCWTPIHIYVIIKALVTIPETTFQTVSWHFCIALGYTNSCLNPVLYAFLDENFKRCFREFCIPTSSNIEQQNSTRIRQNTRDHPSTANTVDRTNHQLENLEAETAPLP
# T3 sequence (P41143 whole entry): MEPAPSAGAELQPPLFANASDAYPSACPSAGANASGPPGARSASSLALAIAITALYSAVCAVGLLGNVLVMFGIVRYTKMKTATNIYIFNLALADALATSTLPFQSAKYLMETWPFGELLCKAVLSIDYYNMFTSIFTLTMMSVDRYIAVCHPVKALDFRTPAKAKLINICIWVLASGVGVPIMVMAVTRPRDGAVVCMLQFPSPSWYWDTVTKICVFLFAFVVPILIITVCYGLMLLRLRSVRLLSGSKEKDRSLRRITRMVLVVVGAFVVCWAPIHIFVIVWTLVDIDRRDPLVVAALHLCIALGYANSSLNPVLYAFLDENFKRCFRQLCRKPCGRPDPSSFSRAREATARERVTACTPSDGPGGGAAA
compound,measurement,setting,value
"CC1(C)SSC(C)(C)[C@@H](NC(=O)[C@@H](N)Cc2ccc(O)cc2)C(=O)NCC(=O)N[C@@H](Cc2ccccc2)C(=O)N[C@H]1C(=O)O [DPDPE, reference compound]",KOR EC50 ± SEM (nM),human recombinant KOR [1],inactive
same,KOR α ± SEM,human recombinant KOR [1],inactive
Cc1cc(O)cc(C)c1C[C@H](N)C(=O)N[C@H](CCCNC(=N)N)C(=O)N[C@@H](Cc1ccccc1)C(=O)N[C@@H](CCCCN)C(=O)N[C@@H](CC(=O)O)C(=O)N[C@@H](Cc1ccc(O)cc1)C(=O)N[C@H](Cc1c[nH]c2ccccc12)C(=O)N[C@H](C(=O)N[C@H](Cc1c[nH]c2ccccc12)C(=O)N[C@H](Cc1c[nH]c2ccccc12)C(=O)N[C@@H](CCCCN)C(N)=O)C(C)C [SBL-OPNK-4] (H-[Dmt][dR]FKDY[dW]V[dW][dW]K-NH2),Ki,human recombinant MOR [2],1.02 ± 0.03 nM
same,Ki,human recombinant KOR [3],90.5 ± 5.69 nM
same,Ki,human recombinant DOR [4],1250 nM
same,Ki [nM] ± SEM DOR,human recombinant DOR [4],did not bind efficiently
same,KOR EC50 ± SEM (nM),human recombinant KOR [1],crc incomplete
same,KOR α ± SEM,human recombinant KOR [1],crc incomplete
same,EC50,human recombinant MOR [5],815 ± 145 nM
same,MOR α ± SEM,human recombinant MOR [5],0.74 ± 0.05
same,DOR EC50 ± SEM (nM),human recombinant DOR [6]; [7],inactive
same,DOR α ± SEM,human recombinant DOR [6],inactive
Cc1cc(O)cc(C)c1C[C@H](N)C(=O)N[C@H](CCCNC(=N)N)C(=O)N[C@@H](Cc1ccccc1)C(=O)N[C@@H](CCCCN)C(=O)NCc1ccc(C(=O)NC2(C(=O)N[C@H](Cc3ccccc3)C(=O)NCCCN3CCOCC3)CCCC2)cc1 [SBL-OPNK-6] (H-[Dmt][dR]FK[4Amb][Ac5c][dF]-X2),Ki,human recombinant MOR [2],74.93 ± 0.15 nM
same,Ki [nM] ± SEM MOR,human recombinant MOR [2],Weak binding
same,Ki,human recombinant KOR [3],100 ± 1.16 nM
same,Ki,human recombinant DOR [4],22400 nM
same,Ki [nM] ± SEM DOR,human recombinant DOR [4],did not bind efficiently
same,KOR EC50 ± SEM (nM),human recombinant KOR [1],crc incomplete
same,KOR α ± SEM,human recombinant KOR [1],crc incomplete
same,EC50,human recombinant MOR [5],988 ± 82 nM
same,MOR α ± SEM,human recombinant MOR [5],0.67 ± 0.05
same,DOR EC50 ± SEM (nM),human recombinant DOR [6]; [7],inactive
same,DOR α ± SEM,human recombinant DOR [6],inactive
"Cc1cc(O)cc(C)c1C[C@H](N)C(=O)N[C@H](CCCNC(=N)N)C(=O)N[C@H]1Cc2ccccc2CN(CCC(N)=O)C1=O [KGOP01, H-Dmt-D-Arg-Aba-βAla-NH2, reference compound]",Ki,human recombinant KOR [3],72.7 ± 4.32 nM
same,Ki,human recombinant DOR [4],4.88 ± 0.11 nM
same,KOR EC50 ± SEM (nM),human recombinant KOR [1],crc incomplete
same,EC50,human recombinant MOR [5],0.54 ± 0.06 nM
same,EC50,"human recombinant DOR [6]; calcium mobilization, CHO DOR GαqG66Di5, maximum tested concentration 10 µM, read-out: DOR EC50 ± SEM",75.6 ± 13.1 nM
CC[C@H](NC(=O)c1c(OCCNC(=O)[C@H](CCCCN)NC(=O)[C@H](Cc2ccccc2)NC(=O)[C@@H](CCCNC(=N)N)NC(=O)[C@@H](N)Cc2c(C)cc(O)cc2C)c(-c2ccccc2)nc2ccccc12)c1ccccc1 [SBL-OPNK-8] (H-[Dmt][dR]FK[X3]-{NH(1S-phenylpropyl)}),Ki,human recombinant MOR [2],120 ± 5.25 nM
same,Ki [nM] ± SEM MOR,human recombinant MOR [2],Weak binding
same,Ki,human recombinant KOR [3],104 ± 6.12 nM
same,Ki,human recombinant DOR [4],4570 nM
same,Ki [nM] ± SEM DOR,human recombinant DOR [4],did not bind efficiently
same,KOR EC50 ± SEM (nM),human recombinant KOR [1],crc incomplete
same,KOR α ± SEM,human recombinant KOR [1],crc incomplete
same,EC50,human recombinant MOR [5],916 ± 106 nM
same,MOR α ± SEM,human recombinant MOR [5],0.65 ± 0.02
same,DOR EC50 ± SEM (nM),human recombinant DOR [6]; [7],inactive
same,DOR α ± SEM,human recombinant DOR [6],inactive
CC(=O)N[C@@H](CC(=O)O)C(=O)N[C@@H](Cc1ccc(O)cc1)C(=O)N[C@H](Cc1c[nH]c2ccccc12)C(=O)N[C@H](C(=O)N[C@H](Cc1c[nH]c2ccccc12)C(=O)N[C@H](Cc1c[nH]c2ccccc12)C(=O)N[C@@H](CCCCN)C(N)=O)C(C)C [SBL-OPNK-1] (Ac-DY[dW]V[dW][dW]K-NH2),IC50,"NK2 (h); [125I]NKA 0.1 nM, human recombinant (CHO cells), 60 min RT, n.c. = less than 25% inhibitory binding at highest validated test concentrations, read-out: IC50 [nM] ± SEM, NK2 receptor",33.6 ± 11.9 nM
same,Ki,"NK2 (h); [125I]NKA 0.1 nM, human recombinant (CHO cells), Cheng Prusoff, n.c. = not calculated, read-out: Ki [nM] ± SEM, NK2 receptor",18.3 ± 13 nM
same,lower NK2 binding affinity compared to the reference compound,NK2 (h); reference [Nle10]-NKA(4-10),about 17 fold
